Results taken from patent US5990276A, “Synthetic inhibitors of hepatitis C virus NS3 protease” (Schering Corporation, priority 1997, dated 1999).
Square brackets hold non-standard residues; d marks the D form. Peptide text beside a SMILES is read from it. * marks the point of attachment. Biotin = O=C1N[C@H]2[C@H](CS[C@H]2CCCCC(=O)*)N1

Target: T1, HCV NS3 protease (Hepatitis C virus genotype 1a, UniProt P27958)
T1 construct: HT (hydrophilic solubilizing tail) (C); made in house; host or cells: E. coli M15 [pREP4]
Experiment: HPLC assay of inhibition of HCV NS3 protease cleavage of the 5A/5B substrate
Format: biochemical
Conditions: Example 2; separate method not given; read-out: IC50, monovalent inhibitors of the HCV NS3 protease
Experimental: Into an aqueous solution containing 25 mM TRIS, 50 mM NaCl, 0.5 mM EDTA, 10% glycerol and 0.1% NP40 was placed the potential inhibitor, the HCV NS3 protease at a concentration of 0.05 μM-[…], the HCV NS4A cofactor at a concentration of 0.05 μM-0.1 μM and the 5A/5B substrate at a concentration of 50 μM. This solution was then incubated for approximately 2 hours at 30° C. after which the solution was applied to an HPLC to determine if the 5A/5B remained intact and thus the compound was determined to be an inhibitor. […] The potential inhibitors were assayed at several different concentrations to determine the concentration which produced 50% inhibition of the HCV NS3 protease.

T1 sequence (P27958 1028-1209): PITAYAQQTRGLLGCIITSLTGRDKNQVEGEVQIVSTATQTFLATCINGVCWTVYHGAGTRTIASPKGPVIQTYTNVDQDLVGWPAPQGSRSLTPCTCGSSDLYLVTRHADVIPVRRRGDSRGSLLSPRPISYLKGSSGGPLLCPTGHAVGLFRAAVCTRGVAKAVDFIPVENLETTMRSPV

Row | SMILES | IC50
1 | CC[C@@H](C)[C@@H](NC(=O)[C@H](NC(=O)[C@@H](CC(C)C)NC(=O)[C@@H](CO)NC(C)=O)C(C)C)C(=O)N[C@H](CCCNC(=N)N)C(=O)NCC(=O)N[C@@H](C(=O)N[C@@H](C(=O)N[C@@H](C(N)=O)C(C)C)[C@H](C)CC)C(C)C [SEQ ID NO.: 12, Ser-Leu-Val-Ile-Arg-Gly-Val-Ile-Val] | 600 nM
2 | CC[C@@H](C)[C@@H](NC(=O)[C@H](NC(=O)[C@@H](CC(C)C)NC(=O)[C@@H](CO)NC(=O)CNC(=O)[C@@H](CCCCN)NC(C)=O)C(C)C)C(=O)N[C@H](CCCNC(=N)N)C(=O)NCC(=O)N[C@@H](C(=O)N[C@@H](C(=O)N[C@@H](C(=O)N[C@@H](C(=O)N[C@H](CS)C(N)=O)C(C)C)C(C)C)[C@H](C)CC)C(C)C [SEQ ID NO.: 13, Lys-Gly-Ser-Leu-Val-Ile-Arg-Gly-Val-Ile-Val-Val-Cys] | 2000 nM
3 | CC[C@@H](C)[C@@H](NC(=O)[C@H](NC(=O)[C@@H](CC(C)C)NC(=O)[C@@H](CO)NC(=O)CNC(=O)[C@@H](CCCCN)NC(=O)CCCC[C@@H]1SC[C@@H]2NC(=O)N[C@@H]21)C(C)C)C(=O)N[C@H](CCCNC(=N)N)C(=O)NCC(=O)N[C@@H](C(=O)N[C@@H](C(=O)N[C@@H](C(=O)N[C@@H](C(=O)N[C@H](CS)C(=O)N[C@@H](CCCCN)C(=O)N[C@@H](CCCCN)C(=O)O)C(C)C)C(C)C)[C@H](C)CC)C(C)C [SEQ ID NO.: 14, Xaa-Lys-Gly-Ser-Leu-Val-Ile-Arg-Gly-Val-Ile Val-Val-Cys-Lys-Lys] (Biotin-[dK]G[dS][dL][dV][dI][dR]G[dV][dI][dV][dV][dC]KK-OH) | 400 nM
